This is an account of results in patent publication US5189065A, “Use of derivatives of 9,10-dihydrophenanthrene for the preparation of an anti-tumor medicament” (Roussel Uclaf, priority 1989, dated 1993).

Molecules are shown by their SMILES.

Assay [1] has as its target T1, Tyrosinekinase of the EGF (Epidermal Growth Factor) Receptor (Homo sapiens, UniProt P00533).
T1 construct: Membranes of A431 cells (ATCC CRL 1555) are used as the source of EGF receptors; endogenous in cells; host or cells: A431 cell membranes (ATCC CRL 1555)
The assay is described as follows: Inhibition of tyrosinekinase of the EGF receptor (A431 cell membranes). Format: biochemical. To be noted: membranes of A431 cells; samples containing poly(Glu, Ala, Tyr 6:3:1) substrate and EGF; 15 minutes at 30° C.; read-out: IC50, concentration of substance which inhibits the enzyme activity by 50% (converted). The procedure:
1 - Measurement of the Inhibition of Tyrosinekinase of the EGF (Epidermal Growth Factor) Receptor
Membranes of A431 cells (ATCC CRL 1555) are used as the source of EGF receptors. This cellular lineage expresses a large number of EGF receptors at its surface which have a tyrosinekinase activity.
These cells are pre-incubated with or without EGF (1000 nM) for 15 minutes and are added to a corresponding HEPES buffer (N-2-hydroxyethyl-piperazine-N'-2-ethanesulphonic acid) (with or without EGP) and containing Mg^2+ (10 mM) and Mn^2+ (2 mM) ions, 0.2% of X-100 triton, sodium orthovanadate (20 micromoles) and the inhibitor.
Samples either containing or not containing the poly substrate (Glu, Ala, Tyr 6:3:1) are prepared. The reaction is initiated by the addition of [gamma P^32 ] ATP (32 micromoles). After incubation for 15 minutes at 30° C. the samples are precipitated using 10% […], followed by filtering on a millipore membrane and the incorporated P^32 is measured with a liquid scintillation counter.
The results are expressed in IC50, that is the concentration of substance which inhibits the enzyme activity by 50%, determined by a series of dilutions starting at 51 micrograms/ml in the samples containing the substrate and EGF.

Assay [2] deals with catalytic sub-unit of the proteinkinase dependent on cyclic 3',5'-AMP. The assay is described as follows: Inhibition of the proteinkinase dependent on cyclic 3',5'-AMP. Format: biochemical. To be noted: inhibitor 40 micrograms/ml; KEMPTID substrate; pH 6.9; 15 minutes at 30° C. The procedure: 2 - Measurement of the Inhibition of the Proteinkinase Dependent on Cyclic 3',5'-AMP
The catalytic sub-unit of the proteinkinase dependent on cyclic 3',5'-AMP was reconstituted as indicated in SIGMA®. The enzyme activity was measured using KEMPTID® (SIGMA®) as substrate (KEMPTID - Leu-Arg-Arg-Ala-Ser-Leu-Gly).
The inhibitor is pre-incubated at pH 6.9 with the enzyme, the substrate (190 micromoles), Mg^+2 (5 mM), 0.25 mg/ml of BSA (Bovine Serum Albumin) and 3.75 mM of mercaptoethanol in 50 mM of 4-morpholinopropanesulphonic acid.
The reaction is initiated using gamma P^32 ATP (40 micromoles). After 15 minutes at 30° C. an aliquot is placed on an ion-exchange paper ([…]; WHATMAN®) plunged into phosphoric acid (75 mM), washed, dried and the incorporation of P^32 is measured using a liquid scintillation counter.
The results are expressed as a percentage of the enzyme activity inhibition at a concentration of inhibitor of 40 micrograms/ml.

T1 sequence (P00533 25-1210): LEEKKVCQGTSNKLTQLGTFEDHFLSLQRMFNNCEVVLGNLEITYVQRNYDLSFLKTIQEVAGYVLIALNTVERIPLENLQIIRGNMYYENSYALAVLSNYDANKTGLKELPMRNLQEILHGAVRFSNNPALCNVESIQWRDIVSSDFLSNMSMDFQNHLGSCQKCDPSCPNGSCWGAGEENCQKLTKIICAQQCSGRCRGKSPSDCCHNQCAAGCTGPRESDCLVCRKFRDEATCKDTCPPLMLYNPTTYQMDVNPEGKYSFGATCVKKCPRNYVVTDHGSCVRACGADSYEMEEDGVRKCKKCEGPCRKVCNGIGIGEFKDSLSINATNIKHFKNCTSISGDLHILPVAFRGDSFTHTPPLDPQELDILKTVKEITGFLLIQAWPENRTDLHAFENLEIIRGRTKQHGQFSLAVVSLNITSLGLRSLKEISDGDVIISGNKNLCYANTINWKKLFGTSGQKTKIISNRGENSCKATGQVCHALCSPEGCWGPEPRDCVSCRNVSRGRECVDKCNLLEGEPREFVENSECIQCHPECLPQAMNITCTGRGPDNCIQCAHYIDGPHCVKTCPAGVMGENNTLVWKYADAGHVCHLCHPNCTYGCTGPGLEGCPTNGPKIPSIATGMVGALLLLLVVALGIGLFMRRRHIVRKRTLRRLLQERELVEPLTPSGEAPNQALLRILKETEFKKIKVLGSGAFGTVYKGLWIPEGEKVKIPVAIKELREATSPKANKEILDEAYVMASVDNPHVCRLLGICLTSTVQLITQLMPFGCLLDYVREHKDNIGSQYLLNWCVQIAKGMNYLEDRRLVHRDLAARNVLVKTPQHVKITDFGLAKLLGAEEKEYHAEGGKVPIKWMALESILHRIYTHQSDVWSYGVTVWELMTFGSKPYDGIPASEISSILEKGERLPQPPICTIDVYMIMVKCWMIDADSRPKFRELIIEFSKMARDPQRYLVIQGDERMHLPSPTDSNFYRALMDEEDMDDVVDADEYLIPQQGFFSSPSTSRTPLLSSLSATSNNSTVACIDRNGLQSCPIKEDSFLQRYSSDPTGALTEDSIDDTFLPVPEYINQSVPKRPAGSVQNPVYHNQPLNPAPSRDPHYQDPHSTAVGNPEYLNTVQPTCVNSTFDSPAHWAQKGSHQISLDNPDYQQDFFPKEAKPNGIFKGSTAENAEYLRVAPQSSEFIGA
T1 sequence (P01133 971-1023 partner limits assumed): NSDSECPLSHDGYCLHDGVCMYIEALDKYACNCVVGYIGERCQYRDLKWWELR

In the case of `Br.CNC1Cc2ccc(O)c(O)c2-c2ccccc21` (stereo not shown) [Example 3, 3,4-dihydroxy-9-methylamino-9,10-dihydrophenanthrene (hydrobromide)], the IC50 in assay [1] was 621 nM. Besides, the “percentage of the enzyme activity inhibition” value in assay [2] was 18%.

Turning to `CN(C)C1Cc2ccc(O)c(O)c2-c2ccccc21` (stereo not shown) [Product A, 3,4-dihydroxy-9-dimethylamino-9,10-dihydrophenanthrene], in assay [1], the IC50 is 2350 nM. Further, the “percentage of the enzyme activity inhibition” value in assay [2] was 19%.
